The nature of data set [1]: In vivo antitumor activity expressed as lethal dose with daily administration schedule against P388 murine leukemia cells. To be noted: mouse. In kind it is ADME, organism-based.
Data set [2] deals with L1210. In words: Cytotoxicity inhibition against cultured L1210 cells at 200 uM. The format is functional. To be noted: Mus musculus.
Data set [3] deals with L1210. In words: Cytotoxicity inhibition against cultured L1210 cells at 400 uM. In kind it is functional. The conditions noted are these: Mus musculus.

In data set [1], `O=C1C=CC(=O)N1C1O[C@H](CO)[C@@H](O)[C@H]1O` (stereo partly specified) had an LD50 of 35 mg/kg. Still for that read-out and setting: the value for `O=C1C=C(Cl)C(=O)N1C1O[C@H](CO)[C@@H](O)[C@H]1O` (stereo partly specified) was 18 mg/kg; that for `CC(=O)OC[C@H]1O[C@@H](N2C(=O)C=CC2=O)[C@H](OC(C)=O)[C@@H]1OC(C)=O` was 10 mg/kg. For `CC1=CC(=O)N(C2O[C@H](CO)[C@@H](O)[C@H]2O)C1=O` (stereo partly specified), the inhibition at 200 µM in the data set with L1210 [2] stood at 95%. In the data set with L1210 [3], this compound yielded an inhibition at 400 µM of 85%. In addition, in data set [1], the LD50 was 100 mg/kg.

Usually LD50 stands for the dose expected to kill half of the subjects tested. Read a low LD50 as greater toxicity. One may read the inhibition as the percentage by which the read-out fell short of the control. The low end stands for little suppression, the high end for strong suppression.
